# Test results reported in patent publication US9284283B2, “Macrocyclic compounds for modulating IL-17” (ENSEMBLE THERAPEUTICS CORPORATION, priority 2012, dated 2016).
# Target: T1, recombinant human IL17a (binding to its receptor IL17R) (Homo sapiens, UniProt Q16552)
# T1 construct: purchased R&D Systems 317-ILB (IL17a); 177-IR (IL17R/Fc)
# T1 sequence (Q16552 20-155 limits assumed): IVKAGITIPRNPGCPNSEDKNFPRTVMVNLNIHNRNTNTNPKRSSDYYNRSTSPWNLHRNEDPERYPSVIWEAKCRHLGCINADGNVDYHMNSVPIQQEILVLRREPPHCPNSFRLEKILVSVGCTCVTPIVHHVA
# Test: IL-17 competition ELISA I (IL17a coated, IL17R/Fc binding)
# Experimental: ELISA I: The ability of the compounds to block binding of IL17a to its receptor, IL17R, was analyzed in a competition ELISA format. High binding 96-well plates (Costar #9018) were coated with 20 nM of recombinant human IL17a (R&D Systems #317-ILB) in PBS (0.64 μg/mL), 100 μL/well, for 30 min at 37′C followed by 5 min at 4′C. Plates were then washed in PBST (PBS/0.05% Tween-20) on a plate washer, (Biotech EL-450) blocked with protein-free blocking buffer (Thermo Scientific #37573) in 250 μL/well for 30 min on shaker at room temperature, and then washed again. Compound dilutions prepared in PBST were added into the wells in duplicates followed by the addition of IL17R/Fc (R&D Systems #177-IR) at a final concentration of 12 nM. Plates were then incubated for 30 min at room temperature on the shaker. Wells with no compound served as a positive “no competitor” control, while wells with no IL17R/Fc and no compound served as a blank negative control. After an additional PBST wash, 50 ng/mL HRP-conjugated goat anti-human Fc IgG (KPL #04-10-20) was added to the plate for 30 min at room temperature, followed by PBST wash and addition of SureBlue™ TMB (KPL #52-00-03). After the sufficient color development, the reaction was fixed by the addition of 100 μL/well 0.5 N HCl and absorbance was measured at 450 nm on Biotek plate reader.
# Data were processed using BioAssay Enterprise v10.1.4 (CambridgeSoft) software. Linear OD λ450 were plotted against log concentration (x) and fitted to a 4-parameter logistic equation. IC50 was calculated using positive ‘no competitor’ control data as an upper limit and blank control as a lower limit in each assay.
row,SMILES,IC50 [nM]
1,O=C1CNC(=O)[C@@H](Cc2ccc(NC(=O)[C@H](Cc3ccccc3Cl)NC(=O)c3ccc(F)c(F)c3)cc2)NC(=O)CC2(CCCC2)CC(=O)NCCCCCN1 [Compound 297],< 100

# Target: T2, biotinylated human IL-17 (binding to IL17R/Fc) (Homo sapiens, UniProt Q16552)
# T2 construct: purchased R&D Systems 317-ILB (IL-17, biotinylated); 177-IR (IL17R/Fc)
# T2 sequence (Q16552 20-155 limits assumed): T1 sequence (Q16552 20-155 limits assumed)
# Test: IL-17 competition ELISA II (captured IL17R/Fc, biotinylated IL-17)
# Method in brief: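 Anti-human IgG-coated plates captured IL17R/Fc (10 nM), then compound (5-fold dilutions from 1 μM) and biotinylated human IL-17 (20 nM stock) were added for 30 min at room temperature in PBST. Bound IL-17 detected by streptavidin-HRP/TMB at 450 nm. IC50 from 4-parameter logistic fit between no-competitor and blank controls.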
row,SMILES,IC50 [nM]
1,CN1CCOCCOCCN(C)C(=O)[C@@H](Cc2ccc(NC(=O)[C@H](Cc3ccccc3Cl)NC(=O)Cc3ccc(F)cc3)cc2)NC(=O)CC2(CCCC2)CC1=O [Compound 590],< 100
2,O=C1CC2(CCCC2)CC(=O)N[C@H](Cc2ccc(NC(=O)[C@H](Cc3ccccc3Cl)NC(=O)Cc3ccc(F)cc3)cc2)C(=O)NCCCC[C@@H](C(=O)O)N1 [Compound 460],< 100
3,COC(=O)N[C@@H](Cc1ccccc1Cl)C(=O)Nc1ccc(C[C@H]2NC(=O)CC3(CCCC3)CC(=O)N(C)CCN(C)CCN(C)C(=O)[C@@H](C)NC2=O)cc1 [Compound 588],< 100
4,O=C1CC2(CCCC2)CC(=O)N[C@H](Cc2ccc(NC(=O)[C@H](Cc3ccccc3Cl)NC(=O)[C@H](O)c3ccccc3)cc2)C(=O)NCCCCCN1 [Compound 547],100 to 1000
5,CN1CCNC(=O)CC2(CCCC2)CC(=O)N[C@H](Cc2ccc(NC(=O)[C@H](Cc3ccccc3Cl)NC(=O)Cc3ccc(CO)cc3)cc2)C(=O)NCC1 [Compound 402],< 100
6,O=C1CNC(=O)[C@@H](Cc2ccc(NC(=O)[C@@H](NC(=O)c3ccc(Cl)cc3)C3CCCCC3)cc2)NC(=O)CC2(CCCC2)CC(=O)NCCCCCN1 [Compound 396],< 100
7,CN1CCOCCN(C)C(=O)[C@@H](CCS(C)(=O)=O)NC(=O)[C@@H](Cc2ccc(NC(=O)[C@H](Cc3ccccc3Cl)NC(=O)C(F)(F)c3ccccc3)cc2)NC(=O)CC2(CCCC2)CC1=O [Compound 649],< 100
8,C[C@H]1NC(=O)[C@@H](Cc2ccc(NC(=O)[C@H](Cc3ccccc3Cl)NC(=O)Oc3ccccc3)cc2)NC(=O)CC2(CCCC2)CC(=O)NCCCCCNC1=O [Compound 586],< 100
9,CC(c1ccccc1)C(NC(=O)C(F)(F)c1ccccc1)C(=O)Nc1ccc(C[C@H]2NC(=O)CC3(CCCC3)CC(=O)N(C)CCOCCOCCNC2=O)cc1 (stereo partly shown) [Compound 643],< 100
10,O=C1CC2(CCCC2)CC(=O)N[C@H](Cc2ccc(NC(=O)[C@H](Cc3ccccc3Cl)NC(=O)Cc3ccccc3)cc2)C(=O)NC/C=C/CCCCCN1 [Compound 283],100 to 1000
11,NC(=O)c1ccccc1C[C@H]1NC(=O)[C@@H](Cc2ccc(NC(=O)[C@H](Cc3ccccc3Cl)NC(=O)Cc3ccc(CO)cc3)cc2)NC(=O)CC2(CCCC2)CC(=O)N[C@H](C(=O)O)CCCCNC1=O [Compound 659],< 100
12,CN1CCCC/C=C/CNC(=O)[C@@H](Cc2ccc(NC(=O)[C@H](Cc3ccccc3Cl)NC(=O)Cc3ccc(F)cc3)cc2)NC(=O)CC2(CCCC2)CC1=O [Compound 447],< 100
13,CN1CCOCCOCCNC(=O)[C@@H](Cc2ccc(NC(=O)[C@@H](NC(=O)C(F)(F)c3ccccc3)C3CCCCC3)cc2)NC(=O)CC2(CCCC2)CC1=O [Compound 611],< 100
14,O=C1CC2(CCCC2)CC(=O)N[C@H](Cc2ccc(NC(=O)[C@@H](NC(=O)Cc3cccc(O)c3)C3CCCCC3)cc2)C(=O)NCCOCCOCCN1 [Compound 647],< 100
15,O=C1CNC(=O)[C@@H](Cc2ccc(NC(=O)[C@@H](NC(=O)Cc3ccccc3)c3ccccc3)cc2)NC(=O)CC2(CCCC2)CC(=O)NCCCCCN1 [Compound 415],100 to 1000
16,CC(O)[C@H]1NC(=O)[C@@H](Cc2ccc(NC(=O)[C@@H](NC(=O)C(F)(F)c3ccccc3)C3CCCCC3)cc2)NC(=O)CC2(CCCC2)CC(=O)N(C)CCOCCN(C)C1=O (stereo partly shown) [Compound 655],< 100
17,O=C1CC2(CCCC2)CC(=O)N[C@H](Cc2ccc(NC(=O)[C@H](Cc3ccccc3Cl)NC(=O)C(F)(F)c3ccccc3)cc2)C(=O)NCCCCCCCCN1 [Compound 597],< 100
18,O=C1CNC(=O)[C@@H](Cc2ccc(NC(=O)[C@@H](NC(=O)c3cncc4ccccc34)C3CCCCC3)cc2)NC(=O)CC2(CCCC2)CC(=O)NCCCCCN1 [Compound 450],< 100
19,C[C@H]1NC(=O)[C@@H](Cc2ccc(NC(=O)[C@H](Cc3ccccc3Cl)NC(=O)C(F)(F)c3ccccc3)cc2)NC(=O)C[C@H](Cc2ccccc2)NC(=O)CCNC(=O)CCNC1=O [Compound 633],< 100
20,CN(C)CC[C@H]1NC(=O)[C@@H](Cc2ccc(NC(=O)[C@H](Cc3ccccc3Cl)NC(=O)C(F)(F)c3ccccc3)cc2)NC(=O)CC2(CCCC2)CC(=O)N(C)CCOCCN(C)C1=O [Compound 642],< 100

row,SMILES,IC50 [nM]
1,CC(=O)N[C@@H](Cc1ccccc1Cl)C(=O)Nc1ccc(C[C@H]2NC(=O)CC3(CCCC3)CC(=O)N[C@H](C(=O)O)CCCCNC2=O)cc1 [Compound 456],100 to 1000
2,CN1CCOCCOCCNC(=O)[C@@H](Cc2ccc(NC(=O)[C@H](Cc3ccccc3Cl)NC(=O)[C@H](O)c3ccccc3)cc2)NC(=O)CC2(CCCC2)CC1=O [Compound 581],< 100
3,CN1CCCC/C=C/CNC(=O)[C@@H](Cc2ccc(NC(=O)[C@@H](NC(=O)c3cccnc3)C3CCCCC3)cc2)NC(=O)CC2(CCCC2)CC1=O [Compound 448],100 to 1000
4,O=C1CNC(=O)[C@@H](Cc2ccc(NC(=O)[C@@H](NC(=O)c3ccc(F)cc3)C3CCCCC3)cc2)NC(=O)CC2(CCCC2)CC(=O)NCCCCCN1 [Compound 403],< 100
5,O=C1CC2(CCCC2)CC(=O)N[C@H](Cc2ccc(NC(=O)[C@H](Cc3ccccc3Cl)NC(=O)Cc3ccc(CO)cc3)cc2)C(=O)NCCCCCN1 [Compound 394],< 100
6,C[C@H]1NC(=O)[C@@H](Cc2ccc(NC(=O)[C@H](Cc3ccccc3Cl)NC(=O)Cc3ccc(F)cc3)cc2)NC(=O)CN(Cc2ccccc2)CC(=O)NCCCCCNC1=O [Compound 557],100 to 1000
7,CN1C(=O)CC2(CCCC2)CC(=O)NCCOCCOCCNC(=O)[C@H]1Cc1ccc(NC(=O)[C@H](Cc2ccccc2Cl)NC(=O)Cc2ccc(F)cc2)cc1 [Compound 477],< 100
8,C[C@H]1NC(=O)[C@@H](Cc2ccc(NC(=O)[C@H](Cc3ccccc3Cl)NC(=O)Cc3ccc(F)cc3)cc2)NC(=O)CC(C)(C)NC(=O)CCCCCCNC1=O [Compound 620],< 100
9,C[C@H]1NC(=O)[C@@H](Cc2ccc(NC(=O)[C@@H](NC(=O)Cc3ccc(N(C)C)cc3)C3Cc4ccccc4C3)cc2)NC(=O)CC2(CCCC2)CC(=O)N(C)CCCCCN(C)C1=O [Compound 644],< 100
10,CN1CCCCCOC(=O)CC2(CCCC2)CC(=O)N[C@H](Cc2ccc(NC(=O)[C@H](Cc3ccccc3Cl)NC(=O)C(F)(F)c3ccccc3)cc2)C(=O)NCC1=O [Compound 678],< 100
11,O=C1CC2(CCCC2)CC(=O)N[C@H](Cc2ccc(NC(=O)[C@H](Cc3ccccc3Cl)NC(=O)Cc3ccccc3)cc2)C(=O)NCCCCCN1 [Compound 392],< 100
12,CN1CCOCCOCCNC(=O)[C@@H](Cc2ccc(NC(=O)[C@H](CC3CCCCC3)NC(=O)Cc3ccc(N(C)C)cc3)cc2)NC(=O)CC2(CCCC2)CC1=O [Compound 614],< 100
13,C[C@H]1NC(=O)[C@@H](Cc2ccc(NC(=O)[C@@H](NC(=O)C(F)(F)c3ccccc3)C3Cc4ccccc4C3)cc2)NC(=O)CC2(CCCC2)CC(=O)N(C)CCCCCN(C)C1=O [Compound 631],< 100
14,C[C@H]1NC(=O)[C@@H](Cc2ccc(NC(=O)[C@H](Cc3ccccc3Cl)NC(=O)Cc3ccc(F)cc3)cc2)NC(=O)CC2(CCCC2)CC(=O)NCCN2CCN(CC2)C1=O [Compound 534],< 100
15,O=C(Cc1ccccc1)N[C@@H](Cc1ccccc1Cl)C(=O)Nc1ccc(C[C@H]2NC(=O)CC3(CCCC3)CC(=O)OCCNCCNC(=O)[C@@H](Cc3ccccc3)NC2=O)cc1 [Compound 444],< 100
16,CNC(=O)N[C@@H](Cc1ccccc1Cl)C(=O)Nc1ccc(C[C@H]2NC(=O)CC3(CCCC3)CC(=O)NCCOCCOCCNC2=O)cc1 [Compound 464],< 100
17,COC(=O)N[C@@H](Cc1ccccc1Cl)C(=O)Nc1ccc(C[C@H]2NC(=O)CC3(CCCC3)CC(=O)N(C)CCCCCN(C)C(=O)[C@@H](C)NC2=O)cc1 [Compound 570],< 100
18,CN1CCNCCOC(=O)CC2(CCCC2)CC(=O)N(C)[C@H](Cc2ccc(NC(=O)[C@H](Cc3ccccc3Cl)NC(=O)Cc3ccccc3)cc2)C(=O)N[C@H](Cc2ccccc2)C1=O [Compound 426],100 to 1000
19,C[C@H]1NC(=O)[C@@H](Cc2ccc(NC(=O)[C@H](Cc3ccccc3Cl)NC(=O)Cc3ccc(F)cc3)cc2)N(C)C(=O)CC2(CCCC2)CC(=O)NCCCCCNC1=O [Compound 486],< 100
